One may read the melting point as the temperature, or range, at which the solid turns liquid.

The source of these data is patent US20110313032A1, “COMPETITIVE INHIBITORS OF TYPE II DEHYDROQUINASE ENZYME” (priority 2008, published 2011).

Where two headings read alike, the source gives them in different places. Bounds are passed on as bounds.

For data set [1], the target named is type II dehydroquinase from Mycobacterium tuberculosis (Mycobacterium tuberculosis, UniProt P9WPX7). The data set is described as follows: biochemical. The procedure:
(§1) Effect of compounds of formula I of the invention on the catalytic activity of the type II dehydroquinase from various sources. The inhibitory potency of compounds I of the invention against type II dehydroquinases from Mycobacterium tuberculoris, Streptomyces coelicolor and Helicobacter pylori were assayed as it is described in the following articles: 1) Sanchez-Sixto, C.; Prazeres, V. F. V.; Castedo, L.; Lamb, H.; Hawkins, A. R.; Gonzalez-Bello, C. J. Med. Chem. 2005, 48, 4871; 2) Prazeres, V. F. V.; Sanchez-Sixto, C.; Castedo, L.; Lamb, H.; Hawkins, A. R.; Riboldi-Tunnicliffe; Coggins, J. R.; Lapthorn, A. J.; González-Bello, C. Chem Med Chem 2007, 2, 194; and 3) Sanchez-Sixto, C.; Prazeres, V. F. V.; Castedo, L.; S. W. Suh, Lamb, H.; Hawkins, A. R.; Canada, F. J.; Jiménez-Barbero, J.; González-Bello, C. Chem Med Chem 2008, 3, 756.

Data set [2] has as its target T1, type II dehydroquinase from Helicobacter pylori (Helicobacter pylori, UniProt Q48255).
T1 sequence (Q48255 1-167): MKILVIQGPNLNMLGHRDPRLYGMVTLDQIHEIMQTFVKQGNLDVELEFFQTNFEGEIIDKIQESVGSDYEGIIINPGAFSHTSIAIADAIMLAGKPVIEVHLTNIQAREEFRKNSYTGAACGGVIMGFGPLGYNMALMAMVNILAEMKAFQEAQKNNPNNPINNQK
The data set is described as follows: Inhibition of type II dehydroquinase from Helicobacter pylori (Ki). The class given is biochemical. The procedure: as §1

For data set [3], the target named is type II dehydroquinase from Streptomyces coelicolor (Streptomyces coelicolor, UniProt P15474). Briefly: Inhibition of type II dehydroquinase from Streptomyces coelicolor (Ki). Format: biochemical. The procedure:
as §1

[4] abbreviates: Inhibition constants Ki, M. tuberculosis, pH = 7.0, 25° C., 50 mM Tris•HOAc.
The mark [5] stands for this setting: pH = 7.0, 25° C., 50 mM Tris•HCl, read-out: Inhibition constants Ki, H. pylori.
Setting [6] is: Inhibition constants Ki, S. coelicolor, pH = 7.0, 25° C., 50 mM Tris•HCl.
Setting [7] is: inhibition constants against Mycobacterium tuberculosis.
Where [8] appears, read: pH = 7.0, 25° C., 50 mM Tris•HOAc, read-out: Inhibition constants Ki, M. tuberculosis.
Where [9] appears, read: pH = 7.0, 25° C., 50 mM Tris•HCl, read-out: Inhibition constants Ki, S. coelicolor.
[10] abbreviates: Inhibition constants Ki, H. pylori, pH = 7.0, 25° C., 50 mM Tris•HCl.

Chain of type II dehydroquinase from Streptomyces coelicolor (P15474 whole entry): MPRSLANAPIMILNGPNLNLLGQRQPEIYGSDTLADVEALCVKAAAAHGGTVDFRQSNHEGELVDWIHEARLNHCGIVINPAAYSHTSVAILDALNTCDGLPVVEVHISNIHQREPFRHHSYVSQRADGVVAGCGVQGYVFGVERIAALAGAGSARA
Chain of type II dehydroquinase from Mycobacterium tuberculosis (P9WPX7 whole entry): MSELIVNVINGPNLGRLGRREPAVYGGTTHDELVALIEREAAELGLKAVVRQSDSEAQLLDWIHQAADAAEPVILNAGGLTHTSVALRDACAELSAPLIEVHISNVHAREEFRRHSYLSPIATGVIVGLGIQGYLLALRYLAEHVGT

Compound `C/C=C/c1cc2c(s1)[C@@H](OC(C)=O)[C@H](OC(C)=O)C[C@]2(OC(C)=O)C(=O)OC` yielded a melting point of 140 to 143 °C.
Turning to `CCOC(=O)[C@@]1(O)C[C@@H](O)[C@H](O)c2sc(CCc3ccccc3)cc21`, the melting point is 118 to 120 °C.
On to `COC(=O)[C@@]1(O)C[C@@H](O)[C@H](O)c2sc(C)cc21`, for which the melting point was in the range of 87 to 92 °C.
Take `CC(C)c1cc2c(s1)[C@@H](O)[C@H](O)C[C@]2(O)C(=O)O`: the melting point is 125 to 127 °C.
In the case of `Cc1ccc(CC2C(=O)C(O)C(O)CC2(O)C(=O)O)cc1` (single isomer, unassigned) [(2R)-Ia-4], the Ki stood at 89 nM in data set [1] (setting [4]), 250 nM in data set [2] (setting [5]) and 22 nM in data set [3] (setting [6]).
As to `COc1ccc(CC2C(=O)C(O)C(O)CC2(O)C(=O)O)cc1` (single isomer, unassigned) [(2R)-Ia-5], the “times more effective than 2,3-dehydroquinic acid, M. tuberculosis” value in data set [1] (Ki ratio) worked out at 8000 times. In addition, in data set [1] (Km of substrate / Ki), the “times more affinity with respect of the natural substrate, M. tuberculosis” value stood at 1600 times. Moreover, the Ki in data set [1] (setting [7]) was determined as 25 nM; in data set [2] (setting [5]), 170 nM; in data set [3] (setting [6]), 34 nM.
Consider `O=C1C(O)C(O)CC(O)(C(=O)O)C1Cc1c(F)c(F)c(F)c(F)c1F` (single isomer, unassigned) [(2R)-Ia-6], for which the figures for the Ki in data set [1] (setting [4]), in data set [2] (setting [5]) and in data set [3] (setting [6]) were 47 nM, 2600 nM and 242 nM, respectively.
For `O=C1C(O)C(O)CC(O)(C(=O)O)C1Cc1ccc2sccc2c1` (single isomer, unassigned) [(2R)-Ia-7], the values for the Ki in data set [1] (setting [4]), in data set [2] (setting [5]) and in data set [3] (setting [6]) were 29 nM, 160 nM and 4 nM, respectively.
`O=C1C(O)C(O)CC(O)(C(=O)O)C1Cc1c(F)c(F)c(F)c(F)c1F` (single isomer, unassigned) [(2S)-Ia-6]: the figures for the Ki in data set [1] (setting [4]) and in data set [3] (setting [6]) were 74 nM and 6.5 nM, respectively.
With `C=CC[C@H]1C(=O)[C@@H](O)[C@H](O)C[C@]1(O)C(=O)O` [(2R)-Ia-1, (2R)-2-allyl-3-dehydroquinic acid], the Ki was determined as 760 nM in data set [1] (setting [8]), 9400 nM in data set [2] (setting [5]) and 10200 nM in data set [3] (setting [6]).
For `CCCC1C(=O)C(O)C(O)CC1(O)C(=O)O` [(2R)-Ia-2, (2R)-2-propyl-3-dehydroquinic acid], the Ki in data set [1] (setting [8]) came to 1700 nM; in data set [2] (setting [5]) it was 20000 nM; in data set [3] (setting [6]), 76000 nM.
For `C=CC[C@@H]1C(=O)[C@@H](O)[C@H](O)C[C@]1(O)C(=O)O` [(2S)-Ia-1, (2S)-2-allyl-3-dehydroquinic acid] the same measures were 1850 nM, 21500 nM and 6700 nM.
On to `O=C(O)[C@]1(O)C=C(OCc2cc3ccccc3s2)[C@@H](O)[C@H](O)C1` [Ib-1, Sodium (1R, 4S, 5R)-3-(benzo[b]thiophen-2-yl)methoxy-1,4,5-trihydroxycyclohex-2-en-1-carboxylate], for which the Ki was 3.2 nM in data set [1] (setting [7]), 160 nM in data set [2] (setting [5]), 0.48 nM in data set [3] (setting [9]) and 0.48 nM in data set [3] (read-out: affinities in the case of S. coelicolor).
On to `O=C(O)C1(O)CC(O)C(O)C(OCc2cc3ccccc3s2)=C1Cc1cc2ccccc2s1` (stereo not shown) [Ib-2], for which the figures for the Ki in data set [1] (setting [4]), in data set [2] (setting [5]) and in data set [3] (setting [6]) were 4.25 nM, 140 nM and 2.8 nM, respectively.
As for `Cc1ccc2sc(COC3=C[C@@](O)(C(=O)O)C[C@@H](O)[C@@H]3O)cc2c1` [Ib-3, Sodium (1R, 4S, 5R)-1,4,5-trihydroxy-3-(5-methylbenzo[b]thiophen-2-yl)methoxycyclohex-2-en-1-carboxylate], the Ki in data set [1] (setting [4]) came to 40 nM; in data set [2] (setting [5]) it was 97 nM; in data set [3] (setting [6]), 2.4 nM.
For the compound `Cc1ccc2sc(COC3=C(Cc4cc5cc(C)ccc5s4)[C@@](O)(C(=O)O)C[C@@H](O)[C@@H]3O)cc2c1` [Ib-4, Sodium (1R, 4S, 5R)-1,4,5-trihydroxy-3-(5-methylbenzo[b]thiophen-2-yl)methoxy-2-(5-methylbenzo[b]thiophen-2-yl)methylcyclohex-2-en-1-carboxylate], the Ki in data set [1] (setting [8]) turned out to be 190 nM; in data set [2] (setting [5]) it was 70 nM; in data set [3] (setting [6]) it was 13 nM.
In the case of `C=CCC1=C(OCc2cc3ccccc3s2)[C@@H](O)[C@H](O)C[C@]1(O)C(=O)O` [Ib-5, Sodium (1R, 4S, 5R)-2-allyl-3-(benzo[b]thiophen-2-yl)methoxy-1,4,5-tri-hydroxycyclohex-2-en-1-carboxylate], the Ki in data set [1] (setting [8]) came to 1240 nM; in data set [2] (setting [5]) it was 1100 nM; in data set [3] (setting [6]) it was 15 nM.
Consider `O=C(O)[C@]1(O)C=C(OCc2ccc3sccc3c2)[C@@H](O)[C@H](O)C1` [Ib-7, Sodium (1R,4S,5R)-1,4,5-trihydroxy-3[(benzo[b]thiophen-5-yl)methoxy]cyclohex-2-en-1-carboxylate], for which the Ki in data set [1] (setting [8]) turned out to be 31 nM; in data set [2] (setting [5]), 166 nM; in data set [3] (setting [6]), 0.3 nM.
On to `O=C(O)[C@@]1(O)C[C@@H](O)[C@H](O)C(OCc2cccs2)=C1Cc1cccs1` [Ib-8], for which the Ki in data set [2] (setting [5]) turned out to be 15000 nM; in data set [3] (setting [9]), 140 nM.
Regarding `O=C(O)[C@@]1(O)C[C@@H](O)[C@H](O)C(OCc2ccc3ccccc3c2)=C1Cc1ccc2ccccc2c1` [Ib-11, Sodium (1R,4S,5R)-1,4,5-trihydroxy-3-(naphth-2-yl)methoxy-2-(naphth-2-yl)methylcyclohex-2-en-1-carboxylate], the Ki in data set [3] (setting [9]) turned out to be 32 nM.
Take `O=C(O)[C@@]1(O)C[C@@H](O)[C@H](O)C(OCc2cccs2)=C1Cc1cc2ccccc2s1` [Ib-12, Sodium (1R,4S,5R)-1,4,5-trihydroxy-3-(thien-2-yl)methoxy-2-(benzo[b]thiophen-2-yl)methylcyclohex-2-en-1-carboxylate]: the Ki in data set [2] (setting [5]) stood at 46 nM; in data set [3] (setting [6]), 279 nM.
Take `O=C([O-])[C@@]1(O)C[C@@H](O)[C@H](O)C(OCc2ccc3sccc3c2)=C1Cc1cccs1.[Na+]` [Ib-13, Sodium (1R,4S,5R)-1,4,5-trihydroxy-3-(benzo[b]thiophen-5-yl)methoxy-2-(thien-2-yl)methylcyclohex-2-en-1-carboxylate]: the “times more effective than the 2,3-dehydroquinic acid, H. pylori” value in data set [2] (Ki ratio) came out at 16.190 times. Further, the “times more affinity with respect of the natural substrate, H. pylori” value in data set [2] (Km of substrate / Ki) is “about 21.000 times”. For the same compound, the values for the Ki in data set [2] (read-out: affinities in the case of H. pylori) and in data set [3] (setting [6]) were 21 nM and 280 nM, respectively.
Take `O=C(O)[C@]1(O)C=C(OCc2ccc3ccccc3c2)[C@@H](O)[C@H](O)C1` [Ib-.10, Sodium (1R,4S,5R)-1,4-trihydroxy-3-(2-naphyl)methoxycyclohex-2-en-1-carboxylate]: in data set [3] (setting [9]), the Ki was below 0.26 nM.
For the compound `Cc1cc2c(s1)[C@@H](O)[C@H](O)C[C@]2(O)C(=O)O` [Ic-2, (4R, 6R, 7S)-4,6,7-trihydroxy-2-methyl-4,5,6,7-tetrahydrobenzo[b]thiophen-4-carboxylic acid], the Ki in data set [1] (setting [4]) turned out to be 400 nM; in data set [2] (setting [10]), 1600 nM; in data set [3] (setting [9]), 3150 nM.
For `C=Cc1cc2c(s1)[C@@H](O)[C@H](O)C[C@]2(O)C(=O)O` [Ic-3, (4R, 6R, 7S)-4,6,7-trihydroxy-2-vinyl-4,5,6,7-tetrahydrobenzo[b]thiophen-4-carboxylic acid] the same measures were 52 nM, 1250 nM and 810 nM.
For `C/C=C/c1cc2c(s1)[C@@H](O)[C@H](O)C[C@]2(O)C(=O)O` [Ic-4, (4R, 6R, 7S)-4,6,7-trihydroxy-2-[(E)-prop-1-enyl]-4,5,6,7-tetrahydrobenzo[b]thiophen-4-carboxylic acid] the same measures were 97 nM, 350 nM and 93 nM.
For `C=C(C)c1cc2c(s1)[C@@H](O)[C@H](O)C[C@]2(O)C(=O)O` [Ic-5], the Ki in data set [1] (setting [4]) was found to be 860 nM; in data set [2] (setting [10]), 38000 nM; in data set [3] (setting [9]) it was 1880 nM.
Take `C=C(c1ccccc1)c1cc2c(s1)[C@@H](O)[C@H](O)C[C@]2(O)C(=O)O` [Ic-10, (4R,6R,7S)-4,6,7-trihydroxy-2-(1-phenylvinyl)-4,5,6,7-tetrahydro-benzo[b]thiophen-4-carboxylic acid]: the Ki came to 20500 nM in data set [2] (setting [10]) and 4650 nM in data set [3] (setting [9]).
Consider `O=C(O)[C@@]1(O)C[C@@H](O)[C@H](O)c2sc(CCc3ccccc3)cc21` [Ic-12, (4R,6R,7S)-4,6,7-trihydroxy-2-phenethyl-4,5,6,7-tetrahydrobenzo[b]thiophene-4-carboxylic acid], for which the Ki in data set [2] (setting [10]) worked out at 1700 nM; in data set [3] (setting [9]), 46 nM.
As for `CCCc1cc2c(s1)[C@@H](O)[C@H](O)C[C@]2(O)C(=O)O` [Ic-13, (4R,6R,7S)-4,6,7-trihydroxy-2-propyl-4,5,6,7-tetrahyclrobenzo[b]thiophene-4-carboxylic acid], the Ki in data set [2] (setting [10]) was determined as 120 nM; in data set [3] (setting [9]), 22 nM.
